Source: patent publication US8722910B2, “Diyne compositions” (Evolva AG, priority 2009, dated 2014)
In brackets after ≈: the same amount, converted by molar mass.

Tested on: M. cookie
Experiment: In vitro antifungal activity vs. dermatophytes (MIC/MFC)
Assay type: cell-based
Settings: M. cookie (n = 1)

O=C(O)CCCCCCC/C=C\C#CC#Cc1ccco1 [Compound III″]
MIC (96 h, 35° C., 4 days): 1 µg/mL (≈ 3.52 µM)
MFC: 2 µg/mL (≈ 7.03 µM)
MIC90/MIC range 48 h (48 h): 1 µg/mL (≈ 3.52 µM)
